Results taken from publication PMC5028351, “Natural flavonoids silymarin and quercetin improve the brain distribution of co-administered P-gp substrate drugs” (SpringerPlus, 2016).
Blank lines part the entries; values can stand above or below the molecule they belong to.

Experiments:
[1] = target: T1, P-gp (Homo sapiens, UniProt P08183); conditions: digoxin 10 µM alone
Method: (§1) Caco-2 cells were seeded in transwell poly carbonate inserts (6 well, 0.4 µm pore size, Corning co-star Co.) at 70,000 cells per insert on the day of seeding. Cells were cultured in DMEM supplemented with 10 % fetal bovine serum and 1 % non essential amino acids (Gibco). All the cells were incubated at 37 °C in a humidified atmosphere with 5 % CO2 and 95 % air. For uptake studies, Caco-2 cells were seeded on to 0.7 cm^2 dishes at a density of approximately 70,000 cells per dish and used for experiment.

[2] = target: T1, P-gp; assay: in vitro; conditions: Caco-2
Method: as §1

[3] = test system: Caco-2; conditions: ref Collett et al. 2004; cited from earlier work
[4] = test system: P-gp; assay: In vivo P-gp inhibition study: plasma and brain pharmacokinetics of i.v. quinidine in mice with and without inhibitor pre-treatment; conditions: for Effect of pre-treatment on plasma profile of quinidine: quinidine 5 mg/kg i.v., inhibitor i.v. 0.5 h pre-treatment; for AUC(0-inf) / AUC(0-t) / Cmax / Tmax: male, C57, mouse, iv, 5 mg/kg
Method: Male C57 mice weighing 30–35 g and of 6–8 weeks old were taken and the animal experiments were conducted in the animal research facility of Syngene International limited, Bengaluru, India. […] Animal study protocols were approved by the Syngene International organisational animal ethics committee, Bengaluru, India.
Dose volumes (5 mL/kg) of drugs were administered by i.v. route via tail vein injection. […]
Mice were divided into three groups (n = 3–4). […] Blood and brain samples were collected at 0.5, 1, 3, 5 and 7 h post dose of probe substrate. Blood was collected from mice under mild anaesthesia via tail vein and collected blood was centrifuged at 5000 rpm to separate plasma.
After sacrificing the mice at different time points, brain was collected homogenised at 5× concentration with phosphate buffered saline using Bullet blender. Fifty µL of brain homogenate or plasma and 200 µL of internal standard (IS) in vehicle (70 % acetonitrile and 30 % water) were mixed in a 96-well hydrophilic solvinert plate. The acetonitrile mixtures were vortexed and centrifuged at 10,000 rpm for 10 min. Supernatant was collected in a 96 well plate and analysed by liquid chromatography with mass spectroscopy (LC-MS, QTRAP ABSCIEX API 4000).
Analysis was carried out using 4000 QTRAP LC/MS/MS system with triple Quadruple mass spectrometer (AB SCIEX) equipped with an electron spray ionisation (ESI). The mass spectrometer was operated in the ESI positive ion mode and detection of ions were performed in the multiple reaction monitoring (MRM) mode.

[5] = test system: P-gp; parameters: method as in O’Brien et al. 2013; conditions: P-gp inhibition using cyclosporin and verapamil; ref O’Brien et al. 2013; cited from earlier work
[6] = test system: P-gp; parameters: method as in Van Asperen et al. 1996; conditions: ref Van Asperen et al. 1996; cited from earlier work

T1 sequence (P08183 whole entry): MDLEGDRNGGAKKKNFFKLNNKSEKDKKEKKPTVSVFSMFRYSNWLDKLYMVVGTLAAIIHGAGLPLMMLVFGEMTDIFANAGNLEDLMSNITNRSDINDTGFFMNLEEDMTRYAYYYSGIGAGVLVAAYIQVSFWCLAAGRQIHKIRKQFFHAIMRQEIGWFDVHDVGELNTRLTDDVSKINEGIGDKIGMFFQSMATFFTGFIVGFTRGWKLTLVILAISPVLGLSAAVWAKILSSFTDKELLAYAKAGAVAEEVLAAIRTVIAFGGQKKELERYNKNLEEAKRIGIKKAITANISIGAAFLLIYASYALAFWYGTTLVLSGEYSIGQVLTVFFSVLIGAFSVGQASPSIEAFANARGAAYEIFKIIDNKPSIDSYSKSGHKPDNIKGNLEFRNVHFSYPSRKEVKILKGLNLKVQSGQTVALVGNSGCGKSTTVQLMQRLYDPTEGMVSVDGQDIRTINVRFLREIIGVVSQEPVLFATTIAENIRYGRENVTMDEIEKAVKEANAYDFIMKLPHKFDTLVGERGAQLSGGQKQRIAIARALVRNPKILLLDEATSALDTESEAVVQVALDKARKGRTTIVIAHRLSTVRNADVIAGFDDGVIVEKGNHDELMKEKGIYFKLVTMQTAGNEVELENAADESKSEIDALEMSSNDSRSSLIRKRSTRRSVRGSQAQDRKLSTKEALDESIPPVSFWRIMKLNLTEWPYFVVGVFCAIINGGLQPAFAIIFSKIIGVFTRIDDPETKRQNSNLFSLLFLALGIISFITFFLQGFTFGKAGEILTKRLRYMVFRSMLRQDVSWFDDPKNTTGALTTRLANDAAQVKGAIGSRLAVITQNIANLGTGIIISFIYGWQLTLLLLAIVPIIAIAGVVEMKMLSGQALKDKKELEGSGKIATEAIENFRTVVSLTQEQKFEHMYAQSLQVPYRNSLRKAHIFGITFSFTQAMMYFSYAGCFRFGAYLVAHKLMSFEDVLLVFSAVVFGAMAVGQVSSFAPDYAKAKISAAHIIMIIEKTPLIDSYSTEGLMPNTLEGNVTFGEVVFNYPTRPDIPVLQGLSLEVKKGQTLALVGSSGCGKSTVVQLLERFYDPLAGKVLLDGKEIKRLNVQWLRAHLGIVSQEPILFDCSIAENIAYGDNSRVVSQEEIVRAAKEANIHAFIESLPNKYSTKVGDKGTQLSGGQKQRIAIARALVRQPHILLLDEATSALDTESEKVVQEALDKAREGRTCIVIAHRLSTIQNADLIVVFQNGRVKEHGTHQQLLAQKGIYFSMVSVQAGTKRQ

- AP-BL transport of digoxin ([1]; Caco-2 (Table 3)): 5.18 10^−8 cm/s
- BL-AP transport of digoxin ([1]; Caco-2 (Table 3)): 1.80 ×10⁻⁶ cm/s
- AP-BL transport (PappA–B) of digoxin ([1]; Caco-2 monolayers): 0.0518 ×10⁻⁶ cm/s
- BL-AP transport (PappB–A) of digoxin ([1]; Caco-2 monolayers): 1.8 ×10⁻⁶ cm/s
- Papp A→B at 10 µM [2]: 0.0518 ×10⁻⁶ cm/s
- Papp B→A at 10 µM [2]: 1.8 ×10⁻⁶ cm/s
Structure (SMILES): C[C@H]1O[C@@H](O[C@H]2[C@@H](O)C[C@H](O[C@H]3[C@@H](O)C[C@H](O[C@H]4CC[C@@]5(C)[C@H](CC[C@@H]6[C@@H]5C[C@@H](O)[C@]5(C)[C@@H](C7=CC(=O)OC7)CC[C@]65O)C4)O[C@@H]3C)O[C@@H]2C)C[C@H](O)[C@@H]1O [Digoxin]
- Caco-2 Papp [3]: 1.1 ×10⁻⁶ cm/s

Structure (SMILES): COc1cc2c(cc1OC)CN(CCc1ccc(NC(=O)c3cccc4c(=O)c5cccc(OC)c5[nH]c34)cc1)CC2 [Elacridar]
- Effect of pre-treatment on plasma profile of quinidine ([4]; mice): no significant difference

Structure (SMILES): CN(C)CCC[C@@]1(c2ccc(F)cc2)OCc2cc(C#N)ccc21 [Escitalopram]
- Increase in brain concentration [5]: threefold

Structure (SMILES): O=c1c(O)c(-c2ccc(O)c(O)c2)oc2cc(O)cc(O)c12 [Quercetin]
- Increase in (AUC) 0–7h B/P of quinidine ([4]; mice, inhibitor pre-treatment): twofold
- Effect of pre-treatment on plasma profile of quinidine ([4]; mice): no significant difference

- AUC(0-inf) ([4]; brain): 251 ng·h/mL
- AUC(0-t) ([4]; brain): 211 ng·h/mL
- Cmax ([4]; brain): 115 ng/mL
- Tmax ([4]; brain): 48 min
- AUC(0-inf) ([4]; plasma): 513 ng·h/mL
- AUC(0-t) ([4]; plasma): 496 ng·h/mL
- Cmax ([4]; plasma): 209 ng/mL
- Tmax ([4]; plasma): 39.6 min
Structure (SMILES): C=C[C@H]1C[N@@]2CC[C@H]1C[C@@H]2[C@@H](O)c1ccnc2ccc(OC)cc12 [Quinidine]

Structure (SMILES): CC[C@]1(O)C[C@@H]2CN(CCc3c([nH]c4ccccc34)[C@@](C(=O)OC)(c3cc4c(cc3OC)N(C)[C@H]3[C@@](O)(C(=O)OC)[C@H](OC(C)=O)[C@]5(CC)C=CCN6CC[C@]43[C@@H]65)C2)C1 [vinblastine]
- Penetration into the brain, P-gp knockout mice compared with wild type control [6]: 7–46 folds
